# According to patent US5998453A, “Oxazolidinone compounds and pharmaceutical preparation containing them” (Schering Aktiengesellschaft, priority 1984, dated 1999):
# System: weight increase caused by croton oil
# Assay: rat ear test according to Tonelli (croton oil), topical anti-inflammatory activity
# Format: in vivo, Wistar rats
# Conditions: 5 hours after treatment
row,Structure (SMILES),ED50 [mg/kg]
1,"CCCC(=O)OC1(C(=O)CO)CCC2C3CCC4=CC(=O)CCC4(C)C3C(O)CC21C (stereo not drawn) [Compound 3, Hydrocortisone 17-butyrate]",0.5
2,"COc1ccc(C2CNC(=O)C2)cc1OCC(C)C (stereo not drawn) [Compound 6, 4-(3-Isobutoxy-4-nmethoxypheny1)-2-pyrrolidone]",1.1
3,"CCCCOc1ccc(CC(=O)NO)cc1 [Compound 1, Bufexamac]",15
4,"COc1ccc(C2CNC(=O)C2)cc1OC1CCCC1 (stereo not drawn) [Compound 4, 4-(3-Cyclopentyloxy-4-methoxyphenyl)-2-pyrrolidone]",0.6
5,"COc1ccc(C2CNC(=O)C2)cc1OC1CCOC1 (stereo not drawn) [Compound 5, 4-[4-Methoxy-3-(3-tetrahydrofuryloxy)phenyl]-2-pyrrolidone]",0.2
6,"O=C(O)COc1nn(Cc2ccccc2)c2ccccc12 [Compound 2, Bendazac]",15
